Experimental findings from US8642074B2, “Thermosensitive liposomes containing therapeutic agents” (Celsion Corporation, priority 2007, dated 2014) are described below.

Series [1] can be described thus: In vivo drug distribution in heated and non-heated leg muscle, liposome vs free docetaxel (Example 2). Also on record: species or system BALB/c mice. The protocol:
Six female BALB/c mice (20±2 g) were randomly separated into 3 groups. The mice were anesthetized and put on a Styrofoam board with a hole in it. One leg of the mouse was pulled through the hole to other side of the board. The board was floated in a water bath to heat the leg at 43.5±0.5° C. for 15 min. The mice then received a tail vein injection of either liposomes at a dose of 10 mg/kg or the same dose of Taxotere (control: prepared according to the manufacturers specifications) The one leg from each mouse was then heated for 30 min. after injection and then sacrificed. Muscles from the heated and non-heated legs were excised. Drug was extracted from a fixed weight of muscle tissue using the extraction method described above. The extracted drug was analyzed by HPLC.

Series [2] has as its system Lewis lung carcinoma cells. As to the kind of experiment: In vivo efficacy in mice bearing Lewis lung tumors with local heating. Further details: species or system Kunming mice. The note with it: day 18, 75 mg/m^2 on days 8, 12, 16. The method, then:
Twelve female Kunming mice, between 7-9 weeks old and weighing 20±2 g were used. Lewis lung carcinoma cells (3×10^6 cells in 0.1 ml of PBS.) were implanted subcutaneously into the right lower leg of each mouse. Tumors were allowed to grow to 4-6 mm in diameter before starting treatment.
The 12 mice were stratified by tumor volume and randomized to 3 treatment groups: saline, free docetaxel and the thermosensitive liposomes of the invention.
Docetaxel-containing thermosensitive liposomes of the invention were prepared as described above and stored at 2-8° C. until use. Treated animals were injected with 75 mg/m^2 docetaxel either in a thermosensitive liposome of the invention or as non-liposomal Taxotere prepared according to the manufacturer's specifications.
The treatment was started on day 8 after the tumor implantation and was repeated on day 12 and day 16. Mice in all treatment groups were anesthetized with an IP injection of pentobarbital (80 mg/kg); treatment was administered in a volume of 0.2 ml via tail vein injection. This dose of anesthesia provided adequate immobilization for the 1-h treatment period.
Except for the saline group, all treatment groups were given an equivalent dose of 75 mg/m^2 of docetaxel. Immediately after injection, the mice were positioned in specially designed holders that allowed the isolated leg tumor to be placed in a water bath for 30 minutes. The water bath temperature was set at 43° C. This water bath temperature has been calibrated previously to give tumor temperatures of 42° C. All the mice were sacrificed at day 18. The tumors were surgically excised and the tumor weights were recorded. The tumor growth inhibition was calculated as follows: Tumor Inhibition Ratio=(Vs−Vx)/Vs
Where: Vs is tumor volume of saline group, Vx is the tumor volume of treatment group.

The structures appear in SMILES notation. “And” between values parts separate entries of the source, which are not always exact repeats. Equal entries are not always repeated.

As for `CC(=O)O[C@@]12CO[C@@H]1C[C@H](O)[C@@]1(C)C(=O)[C@H](O)C3=C(C)[C@@H](OC(=O)[C@H](O)[C@@H](NC(=O)OC(C)(C)C)c4ccccc4)C[C@@](O)([C@@H](OC(=O)c4ccccc4)[C@H]21)C3(C)C` [Docetaxel, docetaxel], the “drug concentration in heated compared with non heated tissue” value in series [1] (Example 2, 10 mg/kg tail vein) was “the same”. The “Adrug/Aref % (heated leg)” value in series [1] (muscle, leg heated at 43.5±0.5° C., 10 mg/kg tail vein, HPLC, Groups 1-3, 10 mg/kg) is 5.46% and 6.53% and 5.48%. Also, in series [1] (muscle, non-heated leg, 10 mg/kg tail vein, HPLC, Groups 1-3, 10 mg/kg), the “Adrug/Aref % (non-heated leg)” value was 5.48% and 6.29% and 5.32%. The “Tumor Weight Average” value in series [2] (group average, tumor heated 30 min, in g (unit assumed)) was 1.002. Besides, the “Tumor Weight” value in series [2] (individual mice, tumor heated 30 min at 42° C., listed as Docetaxel Injection, in g (unit assumed)) is 0.500 and 0.118 and 1.380 and 2.010. The Inhibition % in series [2] (vs saline group, tumor heated 30 min) is 77.91%.
